In the supplement of paper PMC12463676, “Small-molecule dissolution of stress granules by redox modulation benefits ALS models” (Nature Chemical Biology, 2025) one finds thermal stability z-score data, which are given here for 43 targets.

Compound in one assay: NC(=O)CCCCC1CCSS1 [lipoamide]
The assay is described as follows: thermal stability z-score vs DMSO; higher = more thermally stabilized by treatment. To be noted: HeLa, lipoamide concentration 100 µM. Here is the method:
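Cellular thermal proteome profiling in HeLa cells. Cells were treated with 100 µM lipoamide for 1 h, with or without 1 mM arsenate for a further 1 h, then heated to ten temperatures (37-66.3 °C), and soluble protein was quantified by TMT mass spectrometry relative to 0.1% DMSO controls. The thermal stability score (sum of log2 fold changes minus the abundance score) was transformed to a z-score; mean of n = 3 experiments.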

Compound in a further assay: O=[As]([O-])(O)O.[K+] [potassium arsenate]
Described as above. Particulars: HeLa; arsenate concentration 1 mM. Here is the method: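 Cellular thermal proteome profiling in HeLa cells treated with 1 mM arsenate for 1 h (DMSO pretreatment), heated to ten temperatures (37-66.3 °C). Soluble protein was quantified by TMT mass spectrometry relative to DMSO controls; the thermal stability score was transformed to a z-score; mean of n = 3 experiments.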

The mark [1] stands for this setting: arsenate co-treatment: 1 mM arsenate 1 h.
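Note: each temperature applied for 3 min, abundance score taken as mean log2 fold change at the two lowest temperatures, z-score obtained by mean subtraction and division by SD.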

UniProt Q9Y697, sequence (Q9Y697 whole entry): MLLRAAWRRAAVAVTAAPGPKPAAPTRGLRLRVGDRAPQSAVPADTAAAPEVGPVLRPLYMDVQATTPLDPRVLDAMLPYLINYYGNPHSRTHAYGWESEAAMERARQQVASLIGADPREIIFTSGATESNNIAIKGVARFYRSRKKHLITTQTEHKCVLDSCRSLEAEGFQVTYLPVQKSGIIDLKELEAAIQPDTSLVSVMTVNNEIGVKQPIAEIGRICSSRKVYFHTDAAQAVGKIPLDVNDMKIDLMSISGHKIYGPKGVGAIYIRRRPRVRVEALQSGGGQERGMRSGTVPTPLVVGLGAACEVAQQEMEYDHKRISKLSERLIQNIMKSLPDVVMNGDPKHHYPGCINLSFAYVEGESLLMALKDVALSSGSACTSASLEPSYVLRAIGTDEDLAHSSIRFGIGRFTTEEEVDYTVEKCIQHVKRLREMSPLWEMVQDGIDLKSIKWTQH
UniProt Q96JN8, sequence (Q96JN8 whole entry): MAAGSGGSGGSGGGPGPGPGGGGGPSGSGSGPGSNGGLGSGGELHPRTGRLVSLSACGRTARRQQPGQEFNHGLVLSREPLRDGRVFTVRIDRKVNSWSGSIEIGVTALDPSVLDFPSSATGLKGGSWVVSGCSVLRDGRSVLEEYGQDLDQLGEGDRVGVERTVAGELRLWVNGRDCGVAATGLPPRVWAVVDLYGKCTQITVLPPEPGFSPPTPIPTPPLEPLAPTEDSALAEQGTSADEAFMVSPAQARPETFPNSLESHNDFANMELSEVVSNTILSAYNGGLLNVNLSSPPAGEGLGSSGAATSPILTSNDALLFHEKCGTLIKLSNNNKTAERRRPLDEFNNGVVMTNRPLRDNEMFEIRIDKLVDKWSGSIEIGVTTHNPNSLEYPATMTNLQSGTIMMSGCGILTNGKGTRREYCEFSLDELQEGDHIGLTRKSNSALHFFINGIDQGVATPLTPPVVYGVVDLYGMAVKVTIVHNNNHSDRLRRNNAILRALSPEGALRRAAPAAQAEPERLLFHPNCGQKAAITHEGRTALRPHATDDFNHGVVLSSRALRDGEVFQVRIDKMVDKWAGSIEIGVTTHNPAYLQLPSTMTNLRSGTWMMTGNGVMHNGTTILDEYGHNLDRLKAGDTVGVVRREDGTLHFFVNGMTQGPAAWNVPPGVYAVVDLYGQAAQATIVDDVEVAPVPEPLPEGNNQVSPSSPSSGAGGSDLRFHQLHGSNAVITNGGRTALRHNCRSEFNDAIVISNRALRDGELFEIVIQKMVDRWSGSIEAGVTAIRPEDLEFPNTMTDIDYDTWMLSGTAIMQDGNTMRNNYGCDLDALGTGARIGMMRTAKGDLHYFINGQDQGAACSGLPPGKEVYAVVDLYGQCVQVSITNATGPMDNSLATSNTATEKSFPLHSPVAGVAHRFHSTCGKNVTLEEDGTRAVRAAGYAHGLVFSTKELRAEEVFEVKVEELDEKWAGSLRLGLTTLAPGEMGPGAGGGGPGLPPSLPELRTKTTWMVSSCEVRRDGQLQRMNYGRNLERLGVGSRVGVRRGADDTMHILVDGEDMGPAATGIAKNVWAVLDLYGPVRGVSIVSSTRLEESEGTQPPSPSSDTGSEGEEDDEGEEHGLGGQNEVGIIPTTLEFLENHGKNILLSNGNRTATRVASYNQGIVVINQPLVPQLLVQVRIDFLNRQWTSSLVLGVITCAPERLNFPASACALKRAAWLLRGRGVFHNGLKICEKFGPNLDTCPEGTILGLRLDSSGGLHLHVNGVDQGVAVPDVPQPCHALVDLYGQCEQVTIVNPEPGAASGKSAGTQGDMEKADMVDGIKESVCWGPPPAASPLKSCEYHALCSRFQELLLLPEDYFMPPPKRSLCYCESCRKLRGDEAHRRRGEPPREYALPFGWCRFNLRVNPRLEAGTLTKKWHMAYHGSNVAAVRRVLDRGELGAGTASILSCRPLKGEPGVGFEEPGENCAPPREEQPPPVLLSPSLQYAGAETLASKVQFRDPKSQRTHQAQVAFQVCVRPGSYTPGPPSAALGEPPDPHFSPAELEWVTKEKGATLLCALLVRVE
UniProt Q8N8Q9, sequence (Q8N8Q9 whole entry): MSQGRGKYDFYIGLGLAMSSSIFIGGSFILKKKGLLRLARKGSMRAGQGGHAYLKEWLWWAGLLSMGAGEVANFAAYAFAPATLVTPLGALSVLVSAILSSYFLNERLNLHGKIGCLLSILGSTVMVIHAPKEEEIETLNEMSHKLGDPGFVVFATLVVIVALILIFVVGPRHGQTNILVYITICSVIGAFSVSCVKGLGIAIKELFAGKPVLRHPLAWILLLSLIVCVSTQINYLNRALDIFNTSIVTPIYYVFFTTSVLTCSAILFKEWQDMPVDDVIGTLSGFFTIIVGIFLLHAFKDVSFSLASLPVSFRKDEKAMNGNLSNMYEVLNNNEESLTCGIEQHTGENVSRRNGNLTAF
UniProt Q96IV0, sequence (Q96IV0 whole entry): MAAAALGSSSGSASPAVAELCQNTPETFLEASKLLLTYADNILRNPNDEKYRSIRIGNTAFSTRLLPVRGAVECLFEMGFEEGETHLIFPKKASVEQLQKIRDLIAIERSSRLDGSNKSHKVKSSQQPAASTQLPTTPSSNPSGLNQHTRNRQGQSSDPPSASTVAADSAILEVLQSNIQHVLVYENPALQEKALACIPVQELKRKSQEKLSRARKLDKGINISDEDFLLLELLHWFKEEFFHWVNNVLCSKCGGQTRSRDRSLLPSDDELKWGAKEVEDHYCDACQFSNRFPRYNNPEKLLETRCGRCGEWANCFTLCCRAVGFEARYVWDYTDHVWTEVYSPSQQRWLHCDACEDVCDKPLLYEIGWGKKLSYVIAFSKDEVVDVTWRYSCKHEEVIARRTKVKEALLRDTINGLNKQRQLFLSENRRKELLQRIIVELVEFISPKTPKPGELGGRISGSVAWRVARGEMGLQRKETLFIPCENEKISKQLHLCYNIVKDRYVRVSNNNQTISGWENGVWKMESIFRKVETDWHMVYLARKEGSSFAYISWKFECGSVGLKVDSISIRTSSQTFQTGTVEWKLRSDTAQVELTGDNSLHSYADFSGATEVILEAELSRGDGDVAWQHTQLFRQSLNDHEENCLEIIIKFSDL
UniProt Q8TDX7, sequence (Q8TDX7 whole entry, looked up): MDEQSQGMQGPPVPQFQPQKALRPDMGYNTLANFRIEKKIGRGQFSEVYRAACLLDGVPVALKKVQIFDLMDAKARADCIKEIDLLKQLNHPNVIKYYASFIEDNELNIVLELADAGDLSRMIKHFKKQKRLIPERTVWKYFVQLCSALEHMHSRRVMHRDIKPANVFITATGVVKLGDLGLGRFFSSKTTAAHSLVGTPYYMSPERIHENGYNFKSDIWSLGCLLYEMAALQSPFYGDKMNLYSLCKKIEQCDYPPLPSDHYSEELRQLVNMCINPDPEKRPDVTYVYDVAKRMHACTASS
UniProt P19838, sequence (P19838 whole entry): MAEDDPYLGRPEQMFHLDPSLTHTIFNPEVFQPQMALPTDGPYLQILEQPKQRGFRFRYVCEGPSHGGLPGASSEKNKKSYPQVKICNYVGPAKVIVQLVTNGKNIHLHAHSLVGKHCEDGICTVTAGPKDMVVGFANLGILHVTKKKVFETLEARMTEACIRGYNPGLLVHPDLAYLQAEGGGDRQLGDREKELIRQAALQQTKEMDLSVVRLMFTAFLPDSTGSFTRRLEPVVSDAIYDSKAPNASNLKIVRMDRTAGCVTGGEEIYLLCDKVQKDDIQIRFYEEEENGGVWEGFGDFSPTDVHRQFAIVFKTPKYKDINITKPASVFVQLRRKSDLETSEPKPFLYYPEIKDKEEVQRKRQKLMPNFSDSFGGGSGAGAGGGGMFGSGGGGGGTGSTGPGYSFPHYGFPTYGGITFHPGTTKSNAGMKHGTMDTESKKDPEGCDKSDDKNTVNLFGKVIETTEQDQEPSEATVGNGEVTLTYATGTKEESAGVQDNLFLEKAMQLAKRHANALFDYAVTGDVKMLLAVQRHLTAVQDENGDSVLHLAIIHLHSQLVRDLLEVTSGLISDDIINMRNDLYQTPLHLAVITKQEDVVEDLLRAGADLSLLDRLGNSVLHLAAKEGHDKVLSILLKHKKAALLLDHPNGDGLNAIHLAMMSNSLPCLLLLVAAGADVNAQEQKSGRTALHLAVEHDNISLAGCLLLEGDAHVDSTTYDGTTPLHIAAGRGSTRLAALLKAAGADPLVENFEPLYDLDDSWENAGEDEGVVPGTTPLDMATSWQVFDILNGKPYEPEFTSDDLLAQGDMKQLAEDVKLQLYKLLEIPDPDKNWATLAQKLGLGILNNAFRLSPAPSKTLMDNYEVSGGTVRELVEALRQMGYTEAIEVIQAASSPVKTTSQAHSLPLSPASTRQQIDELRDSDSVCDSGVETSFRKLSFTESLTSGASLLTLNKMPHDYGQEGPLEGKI
UniProt P18615, sequence (P18615 whole entry): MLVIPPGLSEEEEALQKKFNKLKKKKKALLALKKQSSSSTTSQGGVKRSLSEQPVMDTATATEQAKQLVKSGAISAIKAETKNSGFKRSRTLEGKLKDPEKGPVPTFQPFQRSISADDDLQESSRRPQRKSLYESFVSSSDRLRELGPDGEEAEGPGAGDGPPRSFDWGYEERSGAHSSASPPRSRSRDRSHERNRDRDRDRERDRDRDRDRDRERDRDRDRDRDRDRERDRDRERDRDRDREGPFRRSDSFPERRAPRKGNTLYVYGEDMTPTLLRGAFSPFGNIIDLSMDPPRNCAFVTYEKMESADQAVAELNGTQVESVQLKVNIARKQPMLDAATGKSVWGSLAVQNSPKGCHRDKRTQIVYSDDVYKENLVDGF
UniProt Q9UMX5, sequence (Q9UMX5 whole entry): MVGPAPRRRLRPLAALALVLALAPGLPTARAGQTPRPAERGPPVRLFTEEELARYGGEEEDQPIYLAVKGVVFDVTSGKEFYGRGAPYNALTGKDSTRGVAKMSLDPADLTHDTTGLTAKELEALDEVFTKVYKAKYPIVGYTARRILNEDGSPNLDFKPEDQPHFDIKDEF
UniProt Q9NX24, sequence (Q9NX24 whole entry): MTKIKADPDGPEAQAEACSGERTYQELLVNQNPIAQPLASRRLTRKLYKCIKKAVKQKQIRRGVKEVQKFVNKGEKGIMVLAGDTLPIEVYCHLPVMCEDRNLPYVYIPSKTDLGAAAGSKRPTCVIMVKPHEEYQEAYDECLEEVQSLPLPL

With NEFH (UniProt P12036), the results for the thermal stability z-score with lipoamide (setting [1]), with lipoamide (arsenate co-treatment: none) and with potassium arsenate were -0.156, -0.292 and 0.4, respectively.

For NEGR1 (UniProt Q7Z3B1), the figures for the thermal stability z-score with lipoamide (setting [1]), with lipoamide (arsenate co-treatment: none) and in the assay with potassium arsenate were 0.758, -0.0845 and -0.617, respectively.

On to NEK6 (UniProt Q9HC98), for which the thermal stability z-score with lipoamide (setting [1]) was -0.181; with lipoamide (arsenate co-treatment: none), -0.266; with potassium arsenate it was -0.209.

In the case of NEK7 (UniProt Q8TDX7), the thermal stability z-score is -0.813 with lipoamide (setting [1]), -0.453 with lipoamide (arsenate co-treatment: none) and -0.53 with potassium arsenate.

Turning to NEK9 (UniProt Q8TD19), the thermal stability z-score with lipoamide (setting [1]) was -0.25; with lipoamide (arsenate co-treatment: none), -0.366; in the assay with potassium arsenate it was 0.719.

Take NELFA (UniProt Q9H3P2): the thermal stability z-score was -0.1 with lipoamide (setting [1]), -0.0674 with lipoamide (arsenate co-treatment: none) and -0.107 with potassium arsenate.

NELFB (UniProt Q8WX92): the thermal stability z-score was -0.286 in the assay with lipoamide (setting [1]), 0.576 in the assay with lipoamide (arsenate co-treatment: none) and -0.0666 in the assay with potassium arsenate.

Turning to NELFE (UniProt P18615), the thermal stability z-score in the assay with lipoamide (setting [1]) stood at 0.0818; with lipoamide (arsenate co-treatment: none), 0.467; with potassium arsenate it was 0.293.

Regarding NEMF (UniProt O60524), the thermal stability z-score with lipoamide (setting [1]) was -0.153; with lipoamide (arsenate co-treatment: none), -0.18; with potassium arsenate, 0.135.

On to NEMP1 (UniProt O14524), for which the thermal stability z-score is -0.805 in the assay with lipoamide (setting [1]), -0.823 with lipoamide (arsenate co-treatment: none) and 0.154 with potassium arsenate.

For the target NENF (UniProt Q9UMX5), the thermal stability z-score with lipoamide (setting [1]) was 0.318; with lipoamide (arsenate co-treatment: none), -0.406; in the assay with potassium arsenate, -0.0969.

On to NEU1 (UniProt Q99519), for which the thermal stability z-score with lipoamide (setting [1]) is -0.363; in the assay with lipoamide (arsenate co-treatment: none), -0.25; with potassium arsenate, 0.921.

Regarding NEURL4 (UniProt Q96JN8), the thermal stability z-score is -0.125 with lipoamide (setting [1]), 0.0814 with lipoamide (arsenate co-treatment: none) and 0.00875 with potassium arsenate.

On to NEXN (UniProt Q0ZGT2), for which the figures for the thermal stability z-score with lipoamide (setting [1]), with lipoamide (arsenate co-treatment: none) and with potassium arsenate were 0.00122, 0.037 and 0.0665, respectively.

As for NF1 (UniProt P21359), the results for the thermal stability z-score with lipoamide (setting [1]), with lipoamide (arsenate co-treatment: none) and in the assay with potassium arsenate were -0.487, -0.235 and -0.72, respectively.

Take NF2 (UniProt P35240): the thermal stability z-score with lipoamide (setting [1]) is 0.402; with lipoamide (arsenate co-treatment: none) it was 0.235; with potassium arsenate, -0.309.

As for NFAT5 (UniProt O94916), the thermal stability z-score with lipoamide (setting [1]) stood at 0.48; with lipoamide (arsenate co-treatment: none), 0.0594; with potassium arsenate, 1.37.

For the target NFATC2IP (UniProt Q8NCF5), the thermal stability z-score with lipoamide (setting [1]) was -0.124; in the assay with lipoamide (arsenate co-treatment: none), -0.127; with potassium arsenate, -0.254.

As to NFIA (UniProt Q12857), the thermal stability z-score with lipoamide (setting [1]) was -1.05; with lipoamide (arsenate co-treatment: none), -1.1; with potassium arsenate it was -0.647.

Turning to NFIB (UniProt O00712), the thermal stability z-score with lipoamide (setting [1]) was -1.17; in the assay with lipoamide (arsenate co-treatment: none), -0.437; with potassium arsenate it was -0.0229.

Regarding NFIC (UniProt P08651), the figures for the thermal stability z-score in the assay with lipoamide (setting [1]), with lipoamide (arsenate co-treatment: none) and with potassium arsenate were 0.26, 0.173 and -0.494, respectively.

Regarding NFKB1 (UniProt P19838), the thermal stability z-score in the assay with lipoamide (setting [1]) is 0.0975; with lipoamide (arsenate co-treatment: none), 0.14; with potassium arsenate it was -0.274.

On to NFKB2 (UniProt Q00653), for which the thermal stability z-score with lipoamide (setting [1]) was -0.498; with lipoamide (arsenate co-treatment: none), 0.158; with potassium arsenate it was 0.523.

As for NFKBIB (UniProt Q15653), the figures for the thermal stability z-score in the assay with lipoamide (setting [1]), with lipoamide (arsenate co-treatment: none) and with potassium arsenate were -0.344, -0.271 and 0.948, respectively.

With NFS1 (UniProt Q9Y697), the thermal stability z-score is -0.356 with lipoamide (setting [1]), -0.438 with lipoamide (arsenate co-treatment: none) and -1.15 with potassium arsenate.

NFU1 (UniProt Q9UMS0): the thermal stability z-score with lipoamide (setting [1]) turned out to be 0.559; with lipoamide (arsenate co-treatment: none), 0.402; with potassium arsenate, 0.227.

Consider NFX1 (UniProt Q12986), for which the results for the thermal stability z-score in the assay with lipoamide (setting [1]), with lipoamide (arsenate co-treatment: none) and with potassium arsenate were -1.53, -1.5 and -3.38, respectively.

With NFXL1 (UniProt Q6ZNB6), the thermal stability z-score was -0.724 in the assay with lipoamide (setting [1]), -0.558 in the assay with lipoamide (arsenate co-treatment: none) and -0.813 with potassium arsenate.

In the case of NFYA (UniProt P23511), the thermal stability z-score with lipoamide (setting [1]) is 0.401; with lipoamide (arsenate co-treatment: none) it was -0.0763; with potassium arsenate it was -0.528.

NFYB (UniProt P25208): the thermal stability z-score is 0.446 with lipoamide (setting [1]), 0.825 with lipoamide (arsenate co-treatment: none) and -0.691 in the assay with potassium arsenate.

Regarding NFYC (UniProt Q13952), the values for the thermal stability z-score with lipoamide (setting [1]), with lipoamide (arsenate co-treatment: none) and with potassium arsenate were 0.024, 0.385 and -0.0961, respectively.

For the target NGLY1 (UniProt Q96IV0), the thermal stability z-score with lipoamide (setting [1]) is -0.149; with lipoamide (arsenate co-treatment: none), -0.0587; with potassium arsenate it was 0.0507.

As to NGRN (UniProt Q9NPE2), the figures for the thermal stability z-score with lipoamide (setting [1]), with lipoamide (arsenate co-treatment: none) and in the assay with potassium arsenate were 0.637, 0.0666 and -0.378, respectively.

On to NHLRC2 (UniProt Q8NBF2), for which the thermal stability z-score with lipoamide (setting [1]) is -0.233; in the assay with lipoamide (arsenate co-treatment: none), 0.152; in the assay with potassium arsenate, -2.19.

Take NHP2 (UniProt Q9NX24): the values for the thermal stability z-score with lipoamide (setting [1]), in the assay with lipoamide (arsenate co-treatment: none) and with potassium arsenate were -0.434, -0.739 and -0.721, respectively.

NHS (UniProt Q6T4R5): the thermal stability z-score with lipoamide (setting [1]) is -0.604; with lipoamide (arsenate co-treatment: none), 0.0609; in the assay with potassium arsenate it was -0.851.

Take NHSL1 (UniProt Q5SYE7): the thermal stability z-score was found to be 0.0509 in the assay with lipoamide (setting [1]), 0.218 with lipoamide (arsenate co-treatment: none) and 0.0815 in the assay with potassium arsenate.

On to NIF3L1 (UniProt Q9GZT8), for which the thermal stability z-score in the assay with lipoamide (setting [1]) is -0.14; with lipoamide (arsenate co-treatment: none), -0.407; with potassium arsenate, 0.115.

Turning to NIFK (UniProt Q9BYG3), the thermal stability z-score with lipoamide (setting [1]) is 1.5; with lipoamide (arsenate co-treatment: none), 0.467; with potassium arsenate it was -1.78.

Consider NIP7 (UniProt Q9Y221), for which the thermal stability z-score with lipoamide (setting [1]) was 0.337; with lipoamide (arsenate co-treatment: none), -0.869; in the assay with potassium arsenate, -0.111.

Regarding NIPA2 (UniProt Q8N8Q9), the figures for the thermal stability z-score with lipoamide (setting [1]), with lipoamide (arsenate co-treatment: none) and with potassium arsenate were 0.499, 0.101 and 0.36, respectively.

For NIPBL (UniProt Q6KC79), the thermal stability z-score with lipoamide (setting [1]) is -0.0211; with lipoamide (arsenate co-treatment: none), -0.00358; with potassium arsenate it was -0.167.

NIPSNAP1 (UniProt Q9BPW8): the thermal stability z-score is -1.48 in the assay with lipoamide (setting [1]), -0.204 with lipoamide (arsenate co-treatment: none) and -0.872 with potassium arsenate.
